# In patent US10357546B2, “Acceleration of diabetic wound healing” (University of Notre Dame du Lac, priority 2014, dated 2019):
# Entries after “also recorded” stand apart in the source; their conditions may differ. Structures can show the parent of a compound that is named as a salt. Where two headings read alike, the source gives them in different places.
# Columns and labels:
# ADAM9 = ADAM9 (Homo sapiens (Human), UniProt Q13443); assay: Enzyme inhibition, ADAM9; type: biochemical
# Description: (§1) Human recombinant active MMP-2 and MMP-7, and the catalytic domains of MMP-3 and MMP-14/MT1-MMP were purchased from EMD Chemicals, Inc. (San Diego, Calif., USA); human recombinant catalytic domains of MMP-1, MMP-8, and MMP-9 were purchased from Enzo Life Sciences, Inc. (Farmingdale, N.Y., USA); human recombinant active ADAM9 and ADAM10 were purchased from R&D Systems (Minneapolis, Minn., USA). Fluorogenic substrates MOCAc-Pro-Leu-Gly-Leu-A2pr(Dnp)-Ala-Arg-NH2 (for MMP-2, MMP-7, MMP-9 and MMP-14) and MOCAc-Arg-Pro-Lys-Pro-Val-Glu-Nva-Trp-Arg-Lys(Dnp)-NH2 (for MMP-3) were purchased from Peptides International (Louisville, Ky., USA); Mca-KPLGL-Dpa-AR-NH2 (for MMP-1, MMP-8 and ADAM10) and Mca-PLAQAV-Dpa-RSSSR-NH2 (for ADAM9) were purchased from R&D Systems (Minneapolis, Minn., USA). The Km values for MMP-2, MMP-9 and MMP-14 were the same as previously reported by Gooyit et al. ((2013) J. Med. Chem. 56(20):8139-8150). Inhibitor stock solutions (10 mM) were prepared freshly in DMSO before enzyme inhibition assays. We followed the same methodology for enzyme inhibition studies as reported before by Page-McCaw et al. ((2007) Nat Rev Mol Cell Biol 8(3):221-233). Enzyme inhibition studies were carried out using a Cary Eclipse fluorescence spectrophotometer (Varian, Walnut Creek, Calif., USA).
# MMP-9 [1] = molecular target: T1, MMP-9 (Homo sapiens (Human), UniProt P14780); assay: Enzyme inhibition, MMP-9 catalytic domain; type: biochemical; conditions: for residence time: calculated as 1/koff
# Target sequence in this assay (P14780 107-444): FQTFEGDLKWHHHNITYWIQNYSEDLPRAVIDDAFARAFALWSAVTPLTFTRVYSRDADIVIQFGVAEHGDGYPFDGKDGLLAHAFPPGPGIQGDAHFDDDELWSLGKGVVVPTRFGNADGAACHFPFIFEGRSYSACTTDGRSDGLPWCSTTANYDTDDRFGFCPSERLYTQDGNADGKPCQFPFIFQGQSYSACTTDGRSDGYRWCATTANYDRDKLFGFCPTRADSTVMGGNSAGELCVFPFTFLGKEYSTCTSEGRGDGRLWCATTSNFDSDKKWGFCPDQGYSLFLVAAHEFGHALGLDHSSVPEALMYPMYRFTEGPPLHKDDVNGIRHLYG
# Description: (§6) Inhibitor stock solutions (10 mM) were prepared freshly in DMSO before enzyme inhibition assays. […] Enzyme inhibition studies were carried out using a Cary Eclipse fluorescence spectrophotometer (Varian, Walnut Creek, Calif., USA).
# MMP-8 = MMP-8 (Homo sapiens (Human), UniProt P22894); assay: Enzyme inhibition, MMP-8 catalytic domain; type: biochemical
# Description: as §6
# [2] = system: MMP-8 activity (collagenase) in diabetic wounds; assay: In-situ zymography with DQ-collagen; type: in vivo, mouse; conditions: db/db mice
# Description: (§7) In-situ zymography detects MMP activity in vivo using the fluorogenic substrates: DQ-gelatin for gelatinase (MMP-2 and MMP-9) activity and DQ-collagen for collagenase (MMP-1, MMP-8, and MMP-13) activity.
# (§8) Wounds were embedded in optimal cutting temperature (OCT, Tissue-Tek, Sakura Finetek, Torrance, Calif., USA) compound and cryosectioned at 12-μm thickness for hematoxylin-eosin (H&E) and at 8-μm thickness for in-situ zymography. […] For in-situ zymography, unfixed cryostat sections of wound tissues were incubated in reaction buffer (50 mM TBS pH 7.6) containing DQ-gelatin or DQ-collagen (Molecular Probes, Inc., Eugene, Oreg., USA) at 37° C. for 6 h. After fixation in 4% paraformaldehyde in PBS, cells were counterstained with DAPI and the images were visualized by fluorescence microscopy. […] The images for in-situ zymography and vascular density were obtained by confocal microscopy.
# MMP-14 = MMP-14 (Homo sapiens (Human), UniProt P50281); assay: Enzyme inhibition, MMP-14 catalytic domain; type: biochemical
# Description: as §1
# [3] = system: MMP-9 activity (gelatinase) in diabetic wounds; assay: In-situ zymography with DQ-gelatin; type: in vivo, mouse; conditions: db/db mice
# Description: as §7, §8
# [4] = system: diabetic wounds of db/db mice; assay: Excisional diabetic wound model, wound closure; type: in vivo, mouse
# Description: Female diabetic db/db mice (BKS.Cg-Dock7^m+/+Lepr^db/J, 8-weeks old) were purchased from the Jackson Laboratory (Bar Harbor, Me., USA) and fed 5001 Laboratory Rodent Diet (LabDiet, St. Louis, Mo., USA) and water ad libitum. Mice were housed in polycarbonate shoebox cages with hardwood bedding at 72±2° F. and 12 h light/12 h dark.
# The dorsal area of the mice was shaved, and a single excisional 8-mm diameter wound (50 mm^2) was made on the dorsal thorax with a biopsy punch (Miltex, Plainsboro, N.J., USA) while the animals were under isofluorane anesthesia. Wounds were covered with Tegaderm™ dressing (3M Company, St. Paul, Minn., USA). Topical treatment was started the next day.
# Mice were anesthetized with isofluorane, and wounds were photographed with an Olympus SP-800 UZ camera mounted on a tripod at a fixed distance; a ruler was included in the digital photo. Wound areas were calculated using NIH ImageJ software (version 1.48) and expressed as percent change in wound area relative to day 0.
# (§2) Wound measurements were taken on days 0, 7, 10, and 14. Animals were sacrificed on day 14 and wounds analyzed by H&E staining, TUNEL, and in-situ zymography.
# Female diabetic db/db (BKS.Cg-Dock7m+/+Leprdb/J, 8-weeks old, 38±3 g, n=24) were used for this study. Wounds were inflicted as described and the following day the wounds were treated topically with MMP-8 (50 μL of 20 μg/mL MMP-8 in reaction buffer) or vehicle (50 μL reaction buffer) once a day for 14 days. The reaction buffer consisted of 50 mM Tris (pH 7.5), 10 mM CaCl2, 150 mM NaCl, and 0.05% (w/v) Brij-35 (polyoxyethyleneglycoli dodecyl ether). Digital photographs of the wounds were taken on days 0, 7, 10, and 14 while animals were under isoflurane anesthesia. On days 7 and 14, 12 mice (n=6 per group) were sacrificed. The wounds were excised, embedded in OCT compound, and cryosectioned for histological evaluation and in-situ zymography.
# (§3) Mice were sacrificed on days 7, 10, and 14, and the excised wounds were embedded in OCT compound and cryosectioned for histological evaluation and in situ zymography.
# [5] = Stability in the buffers of the kinetic assays; type: physicochemical
# TGF-β1 = TGF-β1 in wound tissue by ELISA; type: in vivo, mouse; conditions: db/db mice, versus vehicle
# Description: as §3
# (§4) Wound tissues (n=3 mice/group) were harvested and immediately frozen in liquid nitrogen on days 1, 3, and 14. The extracted tissues were homogenized in cold lysis buffer containing free-EDTA protease inhibitor cocktail (Pierce, Rockford, Ill., USA). The lysates were analyzed for protein concentration by the Bradford protein assay (Bio-Rad, Hercules, Calif., USA). The levels of IL-6, TGF-β1 and VEGF in the lysates were determined by ELISA, following the manufacturer's protocol (Abcam, Cambridge, Mass., USA). The cytokine levels for each mouse sample were expressed in picograms/mg tissue.
# MMP-1 = MMP-1 (Homo sapiens (Human), UniProt P03956); assay: Enzyme inhibition, MMP-1 catalytic domain; type: biochemical
# Description: as §1
# IL-6 = IL-6 in wound tissue by ELISA; type: in vivo, mouse; conditions: db/db mice, versus vehicle
# Description: as §3, §4
# [6] = system: apoptotic cells in diabetic wounds; assay: TUNEL apoptosis detection in diabetic wounds; type: in vivo, mouse; conditions: db/db mice, ND-336 0.1 mg/wound/day, day 14
# Description: as §2, §3
# (§5) Wounds were embedded in optimal cutting temperature (OCT, Tissue-Tek, Sakura Finetek, Torrance, Calif., USA) compound and cryosectioned at 12-μm thickness for hematoxylin-eosin (H&E) and at 8-μm thickness for in-situ zymography. Re-epithelialization was assessed on a fluorescent microscope (Nikon Eclipse 90i, Nikon Instruments, Inc., Melville, N.Y., USA). Apoptotic cells in wound sections were assessed using a modified terminal deoxynucleotidyl transferase-mediated dUTP-nick-end labeling (TUNEL) assay kit, following the manufacturer's instructions (Trevigen, Inc., Gaithersburg, Md., USA). For in-situ zymography, unfixed cryostat sections of wound tissues were incubated in reaction buffer (50 mM TBS pH 7.6) containing DQ-gelatin or DQ-collagen (Molecular Probes, Inc., Eugene, Oreg., USA) at 37° C. for 6 h. After fixation in 4% paraformaldehyde in PBS, cells were counterstained with DAPI and the images were visualized by fluorescence microscopy. […]
# MMP-2 [7] = molecular target: T2, MMP-2 (Homo sapiens (Human), UniProt P08253); assay: Enzyme inhibition, MMP-2; type: biochemical
# Description: as §1
# Target sequence in this assay (P08253 110-660): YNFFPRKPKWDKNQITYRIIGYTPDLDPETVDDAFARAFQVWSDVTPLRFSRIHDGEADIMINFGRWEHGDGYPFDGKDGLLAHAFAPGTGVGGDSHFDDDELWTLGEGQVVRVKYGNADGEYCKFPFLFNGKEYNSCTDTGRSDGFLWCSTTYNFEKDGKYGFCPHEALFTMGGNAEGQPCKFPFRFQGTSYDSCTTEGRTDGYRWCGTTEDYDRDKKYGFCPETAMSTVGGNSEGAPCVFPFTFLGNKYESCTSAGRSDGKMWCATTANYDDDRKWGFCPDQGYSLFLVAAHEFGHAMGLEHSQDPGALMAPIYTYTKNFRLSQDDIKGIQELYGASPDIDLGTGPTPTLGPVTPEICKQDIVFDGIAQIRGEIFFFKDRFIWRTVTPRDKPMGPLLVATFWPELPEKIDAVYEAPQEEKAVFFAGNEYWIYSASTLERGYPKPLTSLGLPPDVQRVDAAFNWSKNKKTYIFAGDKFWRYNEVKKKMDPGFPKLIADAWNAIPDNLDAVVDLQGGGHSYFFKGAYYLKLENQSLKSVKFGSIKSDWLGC
# [8] = system: re-epithelialization of diabetic wounds; assay: H&E staining, re-epithelialization of diabetic wounds; type: in vivo, mouse; conditions: db/db mice, ND-336 0.1 mg/wound/day, day 14
# Description: as §2
# Female diabetic db/db (BKS.Cg-Dock7m+/+Leprdb/J, 8-weeks old, 38±3 g, n=24) were used for this study. Wounds were inflicted as described and the following day the wounds were treated topically with MMP-8 (50 μL of 20 μg/mL MMP-8 in reaction buffer) or vehicle (50 μL reaction buffer) once a day for 14 days. The reaction buffer consisted of 50 mM Tris (pH 7.5), 10 mM CaCl2, 150 mM NaCl, and 0.05% (w/v) Brij-35 (polyoxyethyleneglycoli dodecyl ether). […]
# as §5, with “For in-situ zymography, unfixed cryostat sections of wound tissues were incubated in reaction buffer (50 mM TBS pH 7.6) containing DQ-gelatin or DQ-collagen (Molecular Probes, Inc., Eugene, Oreg., USA) at 37° C. for 6 h.” left out
# CD31 = assay: Angiogenesis by anti-CD31 staining; type: in vivo, mouse; conditions: db/db mice wounds
# Description: Wounds were embedded in optimal cutting temperature (OCT, Tissue-Tek, Sakura Finetek, Torrance, Calif., USA) compound and cryosectioned at 12-μm thickness for hematoxylin-eosin (H&E) and at 8-μm thickness for in-situ zymography. Re-epithelialization was assessed on a fluorescent microscope (Nikon Eclipse 90i, Nikon Instruments, Inc., Melville, N.Y., USA). Apoptotic cells in wound sections were assessed using a modified terminal deoxynucleotidyl transferase-mediated dUTP-nick-end labeling (TUNEL) assay kit, following the manufacturer's instructions (Trevigen, Inc., Gaithersburg, Md., USA). For in-situ zymography, unfixed cryostat sections of wound tissues were incubated in reaction buffer (50 mM TBS pH 7.6) containing DQ-gelatin or DQ-collagen (Molecular Probes, Inc., Eugene, Oreg., USA) at 37° C. for 6 h. After fixation in 4% paraformaldehyde in PBS, cells were counterstained with DAPI and the images were visualized by fluorescence microscopy. Immunofluorescent detection of vascular density was performed by staining the tissues with Alexa Fluor 488 anti-mouse CD31 (BioLegend, San Diego, Calif., USA), followed by staining the nuclei with DAPI. The images for in-situ zymography and vascular density were obtained by confocal microscopy.
# ADAM10 = ADAM10 (Homo sapiens (Human), UniProt O14672); assay: Enzyme inhibition, ADAM10; type: biochemical
# Description: as §1
# MMP-3 = MMP-3 (Homo sapiens (Human), UniProt P08254); assay: Enzyme inhibition, MMP-3 catalytic domain; type: biochemical
# Description: as §1
# VEGF = VEGF in wound tissue by ELISA; type: in vivo, mouse; conditions: db/db mice
# Description: as §3, §4
# MMP-7 = MMP-7 (Homo sapiens (Human), UniProt P09237); assay: Enzyme inhibition, MMP-7; type: biochemical
# Description: as §1
# MMP-9 [9] = molecular target: T1, MMP-9; conditions: for comparison; cited from earlier work
# Target sequence in this assay (P14780 94-707, species assumed): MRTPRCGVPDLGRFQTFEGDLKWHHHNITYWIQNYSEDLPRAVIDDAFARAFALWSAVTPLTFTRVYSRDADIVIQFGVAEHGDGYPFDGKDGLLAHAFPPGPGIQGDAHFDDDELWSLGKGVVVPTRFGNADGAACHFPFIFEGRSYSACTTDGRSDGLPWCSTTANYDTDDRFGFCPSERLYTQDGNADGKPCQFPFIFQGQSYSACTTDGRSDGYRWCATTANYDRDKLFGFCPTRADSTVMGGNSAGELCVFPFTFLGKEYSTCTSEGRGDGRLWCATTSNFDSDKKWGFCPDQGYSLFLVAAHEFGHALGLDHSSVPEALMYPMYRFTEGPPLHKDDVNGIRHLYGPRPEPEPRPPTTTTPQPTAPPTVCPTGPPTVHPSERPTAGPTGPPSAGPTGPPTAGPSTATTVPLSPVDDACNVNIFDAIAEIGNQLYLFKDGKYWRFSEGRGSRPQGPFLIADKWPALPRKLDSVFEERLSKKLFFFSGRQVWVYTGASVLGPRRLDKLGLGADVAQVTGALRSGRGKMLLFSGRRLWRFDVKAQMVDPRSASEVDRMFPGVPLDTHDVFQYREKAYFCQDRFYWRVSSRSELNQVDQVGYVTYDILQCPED
# MMP-2 [10] = molecular target: T2, MMP-2; conditions: for comparison; cited from earlier work
# Target sequence in this assay (P08253 110-660, species assumed): as the sequence (P08253 110-660) above
# [11] = combination study: ND-336 0.05 mg/wound/day, MMP-8 1 μg/wound/day
# [12] = topical ND-336 0.1 mg/wound/day
# Sequence of MMP-8 (P22894 100-262): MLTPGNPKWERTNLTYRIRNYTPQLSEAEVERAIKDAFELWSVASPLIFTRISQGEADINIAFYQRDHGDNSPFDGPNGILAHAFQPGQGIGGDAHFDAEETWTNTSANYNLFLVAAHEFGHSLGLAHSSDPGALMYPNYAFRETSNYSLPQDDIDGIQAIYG
# Sequence of ADAM9 (Q13443 whole entry, looked up, stated change not applied, the tested form may be a part): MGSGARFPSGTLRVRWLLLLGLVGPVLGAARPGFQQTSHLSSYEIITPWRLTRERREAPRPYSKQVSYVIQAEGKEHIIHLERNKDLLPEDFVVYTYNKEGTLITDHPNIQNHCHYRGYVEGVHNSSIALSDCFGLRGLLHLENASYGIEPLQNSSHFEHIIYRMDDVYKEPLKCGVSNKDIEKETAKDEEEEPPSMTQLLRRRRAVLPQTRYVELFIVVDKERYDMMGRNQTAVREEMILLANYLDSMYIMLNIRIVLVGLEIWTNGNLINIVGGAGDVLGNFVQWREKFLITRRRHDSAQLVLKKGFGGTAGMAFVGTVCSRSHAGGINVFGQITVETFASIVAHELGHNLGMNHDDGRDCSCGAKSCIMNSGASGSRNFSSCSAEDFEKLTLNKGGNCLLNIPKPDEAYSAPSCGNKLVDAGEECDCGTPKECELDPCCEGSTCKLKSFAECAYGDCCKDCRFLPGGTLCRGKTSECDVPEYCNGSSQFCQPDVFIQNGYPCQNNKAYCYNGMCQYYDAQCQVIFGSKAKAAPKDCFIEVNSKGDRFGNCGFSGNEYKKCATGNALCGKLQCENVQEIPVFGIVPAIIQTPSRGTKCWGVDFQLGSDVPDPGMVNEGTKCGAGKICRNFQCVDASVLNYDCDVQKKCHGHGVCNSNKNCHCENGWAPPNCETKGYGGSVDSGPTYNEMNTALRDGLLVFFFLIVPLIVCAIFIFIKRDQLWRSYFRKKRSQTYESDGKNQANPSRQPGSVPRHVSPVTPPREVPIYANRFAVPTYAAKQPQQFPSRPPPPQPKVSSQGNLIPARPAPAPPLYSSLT
# Sequence of MMP-3 (P08254 100-272): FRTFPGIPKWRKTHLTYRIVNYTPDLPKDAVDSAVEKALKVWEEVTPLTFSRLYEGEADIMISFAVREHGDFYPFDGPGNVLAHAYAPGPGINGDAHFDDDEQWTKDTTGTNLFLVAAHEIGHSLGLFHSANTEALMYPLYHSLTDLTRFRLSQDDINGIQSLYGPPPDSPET
# Sequence of MMP-7 (P09237 95-267): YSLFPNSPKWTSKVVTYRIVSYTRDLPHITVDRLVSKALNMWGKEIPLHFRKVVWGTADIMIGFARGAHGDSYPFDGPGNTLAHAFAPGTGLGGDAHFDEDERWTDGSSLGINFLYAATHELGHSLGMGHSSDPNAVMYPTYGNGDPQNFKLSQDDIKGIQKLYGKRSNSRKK
# Sequence of ADAM10 (O14672 214-672): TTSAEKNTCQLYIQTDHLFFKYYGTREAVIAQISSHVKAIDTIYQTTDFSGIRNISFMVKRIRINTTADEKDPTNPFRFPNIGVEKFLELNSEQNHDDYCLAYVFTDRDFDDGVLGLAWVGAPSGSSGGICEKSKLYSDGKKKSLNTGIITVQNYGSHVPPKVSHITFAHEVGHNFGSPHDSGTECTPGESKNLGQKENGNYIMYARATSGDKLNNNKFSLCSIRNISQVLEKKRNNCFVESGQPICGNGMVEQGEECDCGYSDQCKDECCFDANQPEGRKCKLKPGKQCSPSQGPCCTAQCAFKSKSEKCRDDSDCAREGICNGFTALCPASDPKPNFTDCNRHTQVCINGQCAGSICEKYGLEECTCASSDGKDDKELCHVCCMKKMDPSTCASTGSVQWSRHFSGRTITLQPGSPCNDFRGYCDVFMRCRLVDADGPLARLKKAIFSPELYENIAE
# Sequence of MMP-1 (P03956 100-269): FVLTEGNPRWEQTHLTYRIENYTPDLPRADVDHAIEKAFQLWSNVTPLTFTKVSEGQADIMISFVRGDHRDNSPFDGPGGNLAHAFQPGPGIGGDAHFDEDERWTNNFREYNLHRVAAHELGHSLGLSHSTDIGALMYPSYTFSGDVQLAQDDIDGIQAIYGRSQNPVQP
compound,measurement,setting,value
"NCc1ccc(Oc2ccc(S(=O)(=O)CC3CS3)cc2)cc1 (stereo not shown) [ND-336, (4-(4-((Thiiran-2-ylmethyl)sulfonyl)phenoxy)phenyl)methanamine HCl salt]",inhibition at 100 µM,ADAM9; @ 100 μM,31%
same,inhibition of ADAM9 (in words),ADAM9; printed as ADAMS,marginal to no inhibition
same,"Inhibition type, MMP-9",MMP-9 [1],slow-binding
same,lower Ki for MMP-9 than for MMP-8,MMP-9 [1]; MMP-9 versus MMP-8,50 fold
same,"Inhibition type, MMP-8",MMP-8; HCl salt,linear noncompetitive; also recorded: linear non-competitive
same,MMP-8 activity in wounds (DQ-collagen),[2]; ND-336 0.1 mg/wound/day,not affected
same,MMP-8 activity in wounds (DQ-collagen),[2]; [11],presence of MMP-8
same,"Inhibition type, MMP-14",MMP-14,slow-binding
same,MMP-9 activity in wounds (DQ-gelatin),[3]; ND-336 0.1 mg/wound/day,significantly decreased
same,MMP-9 activity in wounds (DQ-gelatin),[3]; [11],inhibition of MMP-9
same,wound healing in dose-response study,"[4]; 0.05 mg/wound/day, day 14, versus vehicle and 0.025 and 0.01 mg/wound/day",significant better healing
same,diabetic wound healing (in words),[4]; [12],accelerated diabetic wound healing
same,wound healing faster than vehicle,[4]; [12],about 2 fold
same,stability in the buffers used in the kinetic assays,[5],stable
same,Area-under-the-curve (AUC) for TGF-β1,TGF-β1,significantly reduced
same,levels of TGF-β1 in wounds,"TGF-β1; days 1, 3, 14",significantly reduced
same,inhibition of MMP-1 (in words),MMP-1,marginal to no inhibition
same,inhibition at 100 µM,"MMP-1; @ 100 μM, catalytic domain",4%
same,Area-under-the-curve (AUC) for IL-6,IL-6,significantly reduced
same,IL-6 concentrations in wounds,"IL-6; days 1, 3, 14",significantly reduced
same,apoptosis (TUNEL),[6],significantly decreased
same,"Inhibition type, MMP-2",MMP-2 [7],slow-binding
same,re-epithelialization (H&E),[8],almost complete re-epithelialization
same,angiogenesis by anti-CD31 antibodies,CD31,increased angiogenesis
same,inhibition of ADAM10 (in words),ADAM10,marginal to no inhibition
same,inhibition at 100 µM,ADAM10; @ 100 μM,14%
same,inhibition of MMP-3 (in words),MMP-3,marginal to no inhibition
same,inhibition at 100 µM,"MMP-3; @ 100 μM, catalytic domain",23%
same,VEGF concentrations in the wounds,VEGF; compared to vehicle,increased
same,Area-under-the-curve (AUC) for VEGF,VEGF; versus vehicle,significantly increased
same,inhibition of MMP-7 (in words),MMP-7,marginal to no inhibition
same,inhibition at 100 µM,MMP-7; @ 100 μM,1%
COC(=O)Nc1ccc(Oc2ccc(S(=O)(=O)CC3CS3)cc2)cc1 (stereo not shown) [ND-380],"Inhibition type, MMP-9",MMP-9 [1],slow-binding
same,residence time,MMP-9 [1],19.6 min
same,"Inhibition type, MMP-8",MMP-8,non-competitive
same,Ki,MMP-8,13 µM
"O=S(=O)(CC1CS1)c1ccc(Oc2ccccc2)cc1 (stereo not shown) [SB-3CT, reference compound]","Inhibition type, MMP-9",MMP-9 [1],slow-binding
CCOC(=O)Oc1ccc(Oc2ccc(S(=O)(=O)CC3CS3)cc2)cc1 (stereo not shown) [ND-395],"Inhibition type, MMP-9",MMP-9 [1],slow-binding
same,Ki,MMP-9 [1],0.93 µM
same,residence time,MMP-9 [1],119 min
same,Ki,MMP-8,11 µM
"TIMP1: endogenous protein inhibitor, tissue inhibitor of metalloproteinase",residence time of TIMP on MMP-9,MMP-9 [9],7.9 min
same,residence time of TIMP on MMP-2,MMP-2 [10],6.9 min
